Measured values from the supplement of paper PMC10307832.

Experiments:
Assay in all cases: relative viability (nuclei count vs DMSO), 5 days (fraction); higher = more cells survive
[1] = compound: C1CNCCC1C2=CC(=NN2)C3=CC=NC=C3 + CC1(C)CCC(c2ccc(Cl)cc2)=C(CN2CCN(c3ccc(C(=O)NS(=O)(=O)c4ccc(N[C@H](CCN5CCOCC5)CSc5ccccc5)c(S(=O)(=O)C(F)(F)F)c4)cc3)CC2)C1 [Navitoclax] (partner 0.5 µM)
Method in brief: (§1)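 Dosing by pin tool came one day after lung cancer cell lines were seeded in 1536-well plates, using either one drug or a fixed anchor-drug dose plus five library-drug doses (not always all listed) in √10 steps. After 5 days, nuclei were counted on 4× images. Relative viability is treated-well nuclei count divided by vehicle-well nuclei count, and values are medians of duplicate plates.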

[2] = compound: C[C@@H](N)c1ccc(C(=O)Nc2ccnc3[nH]ccc23)cc1 + CCNC(=O)c1noc(-c2cc(C(C)C)c(O)cc2O)c1-c1ccc(CN2CCOCC2)cc1 [Luminespib] (partner 0.01 µM)
Method in brief: as §1

[3] = compound: C[C@@H](N)c1ccc(C(=O)Nc2ccnc3[nH]ccc23)cc1 + CS(=O)(=O)N1CCN(Cc2cc3nc(-c4cccc5[nH]ncc45)nc(N4CCOCC4)c3s2)CC1 [Pictilisib] (partner 1 µM)
Method in brief: as §1

Cell Line	relative viability ([1]; first compound 0.08 µM)	relative viability ([1]; first compound 0.8 µM)	relative viability ([1]; first compound 2.53 µM)	relative viability ([1]; first compound 8 µM)	relative viability ([2]; first compound 0.04 µM)	relative viability ([2]; first compound 0.1265 µM)	relative viability ([2]; first compound 0.4 µM)	relative viability ([2]; first compound 1.265 µM)	relative viability ([2]; first compound 4 µM)	relative viability ([3]; first compound 0.04 µM)	relative viability ([3]; first compound 0.1265 µM)	relative viability ([3]; first compound 0.4 µM)	relative viability ([3]; first compound 4 µM)	relative viability ([3]; first compound 1.265 µM)
NCI-H1734	0.703	1.01	0.88	0.852	0.2	0.209	0.193	0.187	0.195	0.475	0.474	0.461	0.353	–
NCI-H1755	0.978	0.942	1.04	0.935	0.384	0.426	0.69	0.397	0.26	0.418	0.487	0.517	0.364	0.382
NCI-H1792	0.611	0.679	0.639	0.589	0.407	–	0.568	0.45	0.448	0.368	0.273	0.38	0.288	0.349
NCI-H1793	0.305	0.331	0.414	0.526	0.165	0.184	0.178	–	0.183	0.251	0.437	0.327	0.402	–
NCI-H1915	0.798	0.784	0.78	0.778	0.825	0.817	0.869	–	0.629	1.15	0.92	0.925	0.837	–
NCI-H1944	0.989	0.937	1.09	1	0.857	0.722	0.753	0.746	0.6	0.398	0.339	0.337	0.345	–
NCI-H1975	1.18	1.2	1.19	1.09	0.211	0.26	0.114	0.181	0.146	0.281	0.281	0.287	0.236	0.228
NCI-H1993	0.9	0.866	1.01	0.908	0.857	0.923	0.806	0.928	0.684	0.801	0.865	–	0.833	0.812
NCI-H2009	1.16	1.18	1.17	1.14	0.966	0.957	0.952	0.836	0.815	0.77	0.768	0.886	0.753	0.22
NCI-H2023	0.909	1.05	1.06	0.979	1	0.881	0.832	0.689	0.543	0.283	0.26	0.403	0.301	0.139
NCI-H2085	1.21	0.869	1.18	1.24	0.453	0.41	0.405	0.386	0.38	0.6	0.63	0.581	0.606	0.704
NCI-H2087	1.04	0.973	0.969	0.903	0.152	0.153	0.126	–	0.174	1.04	0.78	0.908	0.797	0.153
